Test results taken from patent US20210053957A1, “HERBICIDAL COMPOUNDS” (SYNGENTA PARTICIPATIONS AG, priority 2018, published 2021).

How the values were obtained:
Assay in all cases: Post-emergence efficacy, glasshouse spray test
Format in all cases: in vivo
Eleusine indica (ELEIN) = conditions: Eleusine indica, post-emergence, 312 h; Application Rate 500 g/Ha; evaluated after 13 days; read-out: Control of weed species after post-emergence application, ELEIN (100=total damage to plant; 0=no damage to plant)
Outline: (§1)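 Each value is a visual injury score (0 none, 100 total) read 13 days post-application. Plants were 14 days old at spraying and kept at 24/16° C, 14 h light.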

Lolium perenne (LOLPE) = conditions: Lolium perenne, post-emergence, 312 h; Application Rate 500 g/Ha; evaluated after 13 days; read-out: Control of weed species after post-emergence application, LOLPE (100=total damage to plant; 0=no damage to plant)
Outline: as §1

[1] = tested on: Chenopodium album (CHEAL); conditions: Chenopodium album, post-emergence, 312 h; Application Rate 500 g/Ha; evaluated after 13 days; read-out: Control of weed species after post-emergence application, CHEAL (100=total damage to plant; 0=no damage to plant)
Outline: as §1

[2] = tested on: Digitaria sanguinalis (DIGSA); conditions: Digitaria sanguinalis, post-emergence, 312 h; Application Rate 500 g/Ha; evaluated after 13 days; read-out: Control of weed species after post-emergence application, DIGSA (100=total damage to plant; 0=no damage to plant)
Outline: as §1

[3] = tested on: Amaranthus palmeri (AMAPA); conditions: Amaranthus palmeri, post-emergence, 312 h; Application Rate 500 g/Ha; evaluated after 13 days; read-out: Control of weed species after post-emergence application, AMAPA (100=total damage to plant; 0=no damage to plant)
Outline: as §1

[4] = tested on: Echinochloa crus-galli (ECHCG); conditions: Echinochloa crus-galli, post-emergence, 312 h; Application Rate 500 g/Ha; evaluated after 13 days; read-out: Control of weed species after post-emergence application, ECHCG (100=total damage to plant; 0=no damage to plant)
Outline: as §1

[5] = tested on: Ipomoea hederacea (IPOHE); conditions: Ipomoea hederacea, post-emergence, 312 h; Application Rate 500 g/Ha; evaluated after 13 days; read-out: Control of weed species after post-emergence application, IPOHE (100=total damage to plant; 0=no damage to plant)
Outline: as §1

[6] = tested on: Euphorbia heterophylla (EPHHL); conditions: Euphorbia heterophylla, post-emergence, 312 h; Application Rate 500 g/Ha; evaluated after 13 days; read-out: Control of weed species after post-emergence application, EPHHL (100=total damage to plant; 0=no damage to plant)
Outline: as §1

Setaia fabei (SETFA) = conditions: Setaria faberi, post-emergence, 312 h; Application Rate 500 g/Ha; evaluated after 13 days; read-out: Control of weed species after post-emergence application, SETFA (100=total damage to plant; 0=no damage to plant)
Outline: as §1

SMILES | pest or weed control at 500 g/ha (Eleusine indica (ELEIN)) | pest or weed control at 500 g/ha (Lolium perenne (LOLPE)) | pest or weed control at 500 g/ha [1] | pest or weed control at 500 g/ha [2] | pest or weed control at 500 g/ha [3] | pest or weed control at 500 g/ha [4] | pest or weed control at 500 g/ha [5] | pest or weed control at 500 g/ha [6] | pest or weed control at 500 g/ha (Setaia fabei (SETFA))
O=C(O)CC[n+]1ccc(-c2nccs2)cn1 [Compound A111] | 100% | 90% | 90% | 100% | 90% | 100% | 70% | 90% | 100%
Nc1nnc(-c2cc[n+](CCS(=O)(=O)[O-])nc2)s1 [Compound A65] | 100% | 90% | 70% | 100% | 80% | 60% | 60% | 90% | 100%
O=S(=O)([O-])OCC[n+]1ccc(-c2ncco2)cn1 [Compound A67] | 90% | 60% | 80% | 90% | 100% | 70% | 80% | 80% | 80%
O=S(=O)([O-])CC[n+]1ccc(-c2nc(C(F)(F)F)cs2)cn1 [Compound A18] | 30% | 40% | 10% | 30% | 90% | 30% | 30% | 50% | 40%
O=C(O)CC[n+]1ccc(-c2ccsc2)cn1 [Compound A63] | 20% | 10% | 30% | 20% | 0% | 20% | 20% | 40% | 30%
CNC(=O)c1coc(-c2cc[n+](CCC(=O)O)nc2)n1 [Compound A127] | 70% | 20% | 100% | 90% | 100% | 80% | 60% | 70% | 70%
Cn1cnc(-c2cc[n+](CCC(=O)O)nc2)n1 [Compound A51] | 70% | 60% | 100% | 90% | 100% | 90% | 30% | 90% | 90%
CCOC(=O)c1oc(-c2cc[n+](CCC(=O)OC)nc2)nc1C [Compound A131] | 10% | 10% | 0% | 30% | 10% | 20% | 10% | 10% | 20%
Cc1coc(-c2cc[n+](CCOS(=O)(=O)[O-])nc2)n1 [Compound A134] | 80% | 40% | 30% | 60% | 90% | 70% | 50% | 70% | 70%
